Assay results reported in patent US20220143061A1, “3'3'-CYCLIC DINUCLEOTIDES AND PRODRUGS THEREOF” (INSTITUTE OF ORGANIC CHEMISTRY AND BIOCHEMISTRY ASCR, V.V.I., priority 2019, published 2022).
Where two headings read alike, the source gives them in different places.

Experiments:
[1] = target: T1, human wild type STING (WT STING) (Homo sapiens, UniProt Q86WV6, H232R); test: 293T WT STING standard reporter assay; assay type: cell-based; details: no digitonin, 7 hours, ISRE firefly luciferase
T1 construct: host or cells: 293T cells (ATCC CRL-3216), stably double transfected with pUNO1-hSTING-WT and pGL64.27-4×ISRE
T1 sequence (Q86WV6 whole entry H232R): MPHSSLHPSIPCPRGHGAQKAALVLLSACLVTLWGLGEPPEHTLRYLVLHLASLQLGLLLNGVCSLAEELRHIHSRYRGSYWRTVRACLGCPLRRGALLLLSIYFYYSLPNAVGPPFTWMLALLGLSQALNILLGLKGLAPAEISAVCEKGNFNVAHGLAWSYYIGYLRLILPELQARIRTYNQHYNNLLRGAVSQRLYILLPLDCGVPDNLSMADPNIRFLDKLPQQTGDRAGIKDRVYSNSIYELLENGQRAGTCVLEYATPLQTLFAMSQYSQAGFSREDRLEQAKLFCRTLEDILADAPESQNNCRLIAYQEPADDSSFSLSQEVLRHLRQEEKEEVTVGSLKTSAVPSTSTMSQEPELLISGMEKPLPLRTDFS
From the text: Two complementary oligonucleotides of the sequence […] […] […] […] […] The oligonucleotides were mixed in equal molar amounts, hybridized, and cleaved by restriction endonucleases HindIII (cat. #. R0104S, NEB, Ipswich, USA) and BglII (cat. #R0144S, NEB, Ipswich, USA). Ultimately, they were ligated into plasmid pGL4.27 (cat. #E6651, Promega, Madison, USA) linearized with the same enzymes. As result the sequence with four ISRE sites was placed upstream of the minimum promoter of firefly luciferase reporter gene.
After 5 minutes incubation at room temperature (RT), 250 μL of the mixture was added dropwise to the cells in one well. Cells were incubated 36 hours at 37° C. with 5% CO2, and then detached with 0.05% Trypsin and 0.22 g/L EDTA (both cat. #L0941, Biowest, Riverside, USA).
Transfected cells were seeded onto poly-D-lysine coated six well plates at density 50,000 cells per 1 cm^2 in DMEM medium with high glucose containing 10% heat inactivated FBS, 30 μg/mL blasticidin (cat. #ant-b1-05, InvivoGen, San Diego, USA), 0.06 mg/ml Penicillin G and 0.1 mg/ml Streptomycin Sulfate (both cat. #. L0018, Biowest, Riverside, USA). The medium was replenished every 3-4 days until visible colonies of cells resistant to blasticidin were formed.
Blasticidin resistant cells stably expressing WT STING were further transfected with pGL64.27-4×ISRE plasmid following the same procedure as described above. […] Homogeneous culture of stably double transfected cells was prepared by limiting dilution of cells in 96 well plates and wells with cells were selected that originated from a single cell.
The medium was removed the next day and three-fold serial dilutions of compounds in 100 μl medium were added to the cells. The plates were incubated for 7 hours at 37° C. with 5% CO2. Next 50 μl of the medium was removed from wells, and 30 μl of ONE-Glo™ Luciferase Assay System reagent (cat. #E6120, Promega, Madison, USA) was added to each well. Luminescence was read on Synergy H1 (Biotek, Winooski, USA).

[2] = tested on: peripheral blood mononuclear cell (PBMC); test: Peripheral blood mononuclear cell assay (cytokine levels); assay type: cell-based; details: 1 h with compound, wash, 15 hour incubation, average of one to four donors
Procedure: Selected compounds were tested in an in vitro peripheral blood mononuclear cell (PBMC) assay. […] Serially diluted tested compounds were added to wells in 50 μl of cultivation medium and cell were incubated with compounds for 1 h at 37° C. with 5% CO2. Plates with cells were then spun 500 g for 5 minutes and medium was removed. Cells were washed twice with the cell culture medium by the use of centrifugation and gently resuspended in 100 μl medium without compounds. After 15 hour incubation at 37° C. with 5% CO2, the cell culture medium was collected and the levels of interferon-alpha (INF-α), interferon-gamma (INF-γ) and tumor necrosis factor-alpha (TNF-α) were determined with ProcartaPlex Assays (ThermoFisher, Waltham, USA) and MAGPIX System (Merck KGaA, Darmstadt, Germany). […] Values reported are an average of runs from one to four donors.

[3] = 293T wtSTING-FL cells, read-out: 293T WT STING EC50
[4] = 293T WT STING EC50, 293T wtSTING-FL cells

SMILES | EC50 [1, 3] [nM] | EC50 ([2]; read-out: PBMC EC50 IFN-α) [nM] | EC50 ([2]; read-out: PBMC EC50 IFN-γ) [nM] | EC50 ([2]; read-out: PBMC EC50 TNF-α) [nM] | EC50 [1, 4] [nM]
CC(C)(C)C(=O)OCOP1(=O)CO[C@H]2[C@@H](F)[C@H](n3cnc4c(N)ncnc43)O[C@@H]2COP(=O)(OCOC(=O)C(C)(C)C)O[C@H]2[C@@H](F)[C@H](n3cnc4c(N)ncnc43)O[C@@H]2CO1 (mixture of isomers) [Compound 41b, {[(1R,6R,8R,9R,10R,16R,18R,19R)-8,18-bis(6-amino-9H-purin-9-yl)-13-{[(2,2-dimethylpropanoyl)oxy]methoxy}-9,19-difluoro-3,13-dioxo-2,4,7,11,14,17-hexaoxa-3λ^5,13λ^5-diphosphatricyclo[14.3.0.0^6,^10]nonadecan-3-yl]oxy}methyl 2,2-dimethylpropanoate] | 30 | 250 | 100 | 40 | 
CC(C)OC(=O)OCOP1(=O)CO[C@H]2[C@@H](F)[C@H](n3cnc4c(N)ncnc43)O[C@@H]2COP(=O)(OCOC(=O)OC(C)C)O[C@H]2[C@@H](F)[C@H](n3cnc4c(N)ncnc43)O[C@@H]2CO1 (mixture of isomers) [Compound 42b, {[(1R,6R,8R,9R,10R,16R,18R,19R)-8,18-bis(6-amino-9H-purin-9-yl)-9,19-difluoro-3,13-dioxo-13-({[(propan-2-yloxy)carbonyl]oxy}methoxy)-2,4,7,11,14,17-hexaoxa-3λ^5,13λ^5-diphosphatricyclo[14.3.0.0^6,^10]nonadecan-3-yl]oxy}methyl propan-2-yl carbonate] | 250 | 2300 | 1300 | 1100 | 
CCC(C)(C)C(=O)OCOP1(=O)CO[C@H]2[C@@H](F)[C@H](n3cnc4c(N)ncnc43)O[C@@H]2COP(=O)(OCOC(=O)C(C)(C)CC)O[C@H]2[C@@H](F)[C@H](n3cnc4c(N)ncnc43)O[C@@H]2CO1 (mixture of isomers) [Compound 44b, {[(1R,6R,8R,9R,10R,16R,18R,19R)-8,18-bis(6-amino-9H-purin-9-yl)-13-{[(2,2-dimethylbutanoyl)oxy]methoxy}-9,19-difluoro-3,13-dioxo-2,4,7,11,14,17-hexaoxa-3λ^5,13λ^5-diphosphatricyclo[14.3.0.0^6,^10]nonadecan-3-yl]oxy}methyl 2,2-dimethylbutanoate] | 10 | 200 | 200 | 200 | 
CC1(C(=O)OCOP2(=O)CO[C@H]3[C@@H](F)[C@H](n4cnc5c(N)ncnc54)O[C@@H]3COP(=O)(OCOC(=O)C3(C)CCCCC3)O[C@H]3[C@@H](F)[C@H](n4cnc5c(N)ncnc54)O[C@@H]3CO2)CCCCC1 (mixture of isomers) [Compound 45b] | 30 | 70 | 20 | 20 | 
CCCCCCCC(=O)OCOP1(=O)CO[C@H]2[C@@H](F)[C@H](n3cnc4c(N)ncnc43)O[C@@H]2COP(=O)(OCOC(=O)CCCCCCC)O[C@H]2[C@@H](F)[C@H](n3cnc4c(N)ncnc43)O[C@@H]2CO1 (mixture of isomers) [Compound 46b, {[(1R,6R,8R,9R,10R,16R,18R,19R)-8,18-bis(6-amino-9H-purin-9-yl)-9,19-difluoro-13-[(octanoyloxy)methoxy]-3,13-dioxo-2,4,7,11,14,17-hexaoxa-3λ^5,13λ^5-diphosphatricyclo[14.3.0.0^6,^10]nonadecan-3-yl]oxy}methyl octanoate] | 2 | 4 |  | 1 | 
CCCCCCCCCCCC(=O)OCSP1(=O)OC[C@H]2O[C@@H](n3cnc4c(N)ncnc43)[C@H](F)[C@@H]2OCP(=O)(O)OC[C@H]2O[C@@H](n3cnc4c(N)ncnc43)[C@H](F)[C@@H]2O1 (single isomer, unassigned) [Compound 31b] |  | 800 | 300 | 500 | 
CCCCCCCCCC(=O)OCSP1(=O)OC[C@H]2O[C@@H](n3cnc4c(N)ncnc43)[C@H](F)[C@@H]2OCP(=O)(O)OC[C@H]2O[C@@H](n3cnc4c(N)ncnc43)[C@H](F)[C@@H]2O1 (single isomer, unassigned) [Compound 36a] |  | 2500 | 1600 | 1200 | 
CCCCCCCCCC(=O)OCSP1(=O)OC[C@H]2O[C@@H](n3cnc4c(N)ncnc43)[C@H](F)[C@@H]2OCP(=O)(O)OC[C@H]2O[C@@H](n3cnc4c(N)ncnc43)[C@H](F)[C@@H]2O1 (single isomer, unassigned) [Compound 36b] |  | 1000 | 500 | 800 | 
CC(C)(C)C(=O)OCSP1(=O)CO[C@H]2[C@@H](F)[C@H](n3cnc4c(N)ncnc43)O[C@@H]2COP(=O)(SCOC(=O)C(C)(C)C)O[C@H]2[C@@H](F)[C@H](n3cnc4c(N)ncnc43)O[C@@H]2CO1 (single isomer, unassigned) [Compound 39a] |  |  |  |  | 1100
CC(C)(C)C(=O)OCSP1(=O)CO[C@H]2[C@@H](F)[C@H](n3cnc4c(N)ncnc43)O[C@@H]2COP(=O)(SCOC(=O)C(C)(C)C)O[C@H]2[C@@H](F)[C@H](n3cnc4c(N)ncnc43)O[C@@H]2CO1 (single isomer, unassigned) [Compound 39b] |  |  |  |  | 20
CC(C)(C)C(=O)OCSP1(=O)CO[C@H]2[C@@H](F)[C@H](n3cnc4c(N)ncnc43)O[C@@H]2COP(=O)(SCOC(=O)C(C)(C)C)O[C@H]2[C@@H](F)[C@H](n3cnc4c(N)ncnc43)O[C@@H]2CO1 (single isomer, unassigned) [Compound 39c] |  |  |  |  | 30
CC(C)OC(=O)OCSP1(=O)CO[C@H]2[C@@H](F)[C@H](n3cnc4c(N)ncnc43)O[C@@H]2COP(=O)(SCOC(=O)OC(C)C)O[C@H]2[C@@H](F)[C@H](n3cnc4c(N)ncnc43)O[C@@H]2CO1 (single isomer, unassigned) [Compound 40b] |  |  |  |  | 1200
CC(C)OC(=O)OCSP1(=O)CO[C@H]2[C@@H](F)[C@H](n3cnc4c(N)ncnc43)O[C@@H]2COP(=O)(SCOC(=O)OC(C)C)O[C@H]2[C@@H](F)[C@H](n3cnc4c(N)ncnc43)O[C@@H]2CO1 (single isomer, unassigned) [Compound 40c] |  |  |  |  | 3900
CC(C)(C)C(=O)OCOP1(=O)CO[C@H]2[C@@H](F)[C@H](n3cnc4c(N)ncnc43)O[C@@H]2COP(=O)(OCOC(=O)C(C)(C)C)O[C@H]2[C@@H](F)[C@H](n3cnc4c(N)ncnc43)O[C@@H]2CO1 (single isomer, unassigned) [Compound 41a] | 40 |  |  |  | 
CC(C)(C)C(=O)OCOP1(=O)CO[C@H]2[C@@H](F)[C@H](n3cnc4c(N)ncnc43)O[C@@H]2COP(=O)(OCOC(=O)C(C)(C)C)O[C@H]2[C@@H](F)[C@H](n3cnc4c(N)ncnc43)O[C@@H]2CO1 (single isomer, unassigned) [Compound 41c] | 11 | 70 | 60 | 60 | 
CC(C)OC(=O)OCOP1(=O)CO[C@H]2[C@@H](F)[C@H](n3cnc4c(N)ncnc43)O[C@@H]2COP(=O)(OCOC(=O)OC(C)C)O[C@H]2[C@@H](F)[C@H](n3cnc4c(N)ncnc43)O[C@@H]2CO1 (single isomer, unassigned) [Compound 42a] | 8100 |  |  |  | 
Nc1nc2c(ncn2[C@@H]2O[C@@H]3COP(=O)(O)O[C@H]4[C@@H](O)[C@H](n5cnc6c(N)ncnc65)O[C@@H]4COP(=O)(O)O[C@@H]2[C@@H]3O)c(=O)[nH]1 [2′3′-cGAMP, reference compound] |  | 300000 | 164000 | 210000 | 
CCCCCCCCCCCCOC(=O)OCSP1(=O)OC[C@H]2O[C@@H](n3cnc4c(N)ncnc43)[C@H](F)[C@@H]2OCP(=O)(O)OC[C@H]2O[C@@H](n3cnc4c(N)ncnc43)[C@H](F)[C@@H]2O1 (stereo partly drawn) [Compound 34b, (((2R,3R,3aR,7aR,9R,10R,10aR,15aR)-2,9-bis(6-amino-9H-purin-9-yl)-3,10-difluoro-13-hydroxy-5,13-dioxidodecahydro-2H-difuro[3,2-d:3′,2′-k][1,3,7,10]tetraoxa[2,8]diphosphacyclotridecin-5-yl)thio)methyl dodecyl carbonate] |  | 1300 | 500 | 700 | 
